Results as given in patent US4314028A, “Fermentation process for producing tallysomycin compounds” (priority 1980, dated 1982).

Legend:
[1] = test system: Staphylococcus aureus Smith; assay: MIC, two-fold agar dilution method; type: cell-based; details: nutrient agar
Outline: (§1)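 Agar dilution (2-fold series) on nutrient agar (bacteria) or Sabouraud agar (fungi).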

[2] = test system: Candida albicans IAM 4888; assay: MIC, two-fold agar dilution method; type: cell-based; details: Sabouraud agar
Outline: (§2)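 Compounds are diluted two-fold through agar plates: Sabouraud medium for the fungus, nutrient medium for the bacterial strains, including the acid-fast Mycobacterium 607. Organisms are then applied and the minimum inhibitory concentration is recorded.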

[3] = test system: Proteus mirabilis A9554; assay: MIC, two-fold agar dilution method; type: cell-based; details: nutrient agar
Outline: as §2

[4] = test system: Mycobacterium 607; assay: MIC, two-fold agar dilution method; type: cell-based; details: nutrient agar
Outline: as §1

[5] = test system: Aspergillus fumigatus IAM 2593; assay: MIC, two-fold agar dilution method; type: cell-based; details: Sabouraud agar
Outline: as §1

[6] = test system: Escherichia coli NIHJ; assay: MIC, two-fold agar dilution method; type: cell-based; details: nutrient agar
Outline: as §2

[7] = test system: Sarcina lutea PCI1001; assay: MIC, two-fold agar dilution method; type: cell-based; details: nutrient agar
Outline: as §1

[8] = test system: Bacillus subtilis PCI 219; assay: MIC, two-fold agar dilution method; type: cell-based; details: nutrient agar
Outline: as §1

[9] = test system: Mycobacterium smegmatis strain M6-3; assay: Relative antibacterial potency, paper-disc agar diffusion method; type: cell-based; details: relative to tallysomycin A standard=1000 mcg/mg
Experimental: The relative antibacterial potencies (tallysomycin A standard=1000 mcg/mg) of the tallysomycin derivatives were determined by the paper-disc agar diffusion method using Mycobacterium smegmatis strain M6-3 as the assay organism.

[10] = test system: Melanotic melanoma B16; assay: Antitumor activity in mice, melanotic melanoma B16; type: in vivo, BDF1 mice; details: copper-chelated form unless otherwise stated; for Antitumor activity B16 (ID50): ip, once daily 9 days, 50% inhibition of tumor growth, day 16, 23040 min; for Antitumor therapeutic index B16: single dose LD50/ID50
Outline: (§3)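 P388 (3×10^5 cells) and Lewis lung (5×10^5) i.p. in BDF1 mice, B16 (5×10^5) s.c. in BDF1, Sarcoma 180 ([…]) i.p. in male dd mice. ED125 (Sarcoma 180 ED150) from median-survival T/C, 45 days; B16 ID50 from day-16 tumor size.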

[11] = test system: Lewis lung carcinoma; assay: Antitumor activity in mice, Lewis lung carcinoma; type: in vivo, BDF1 mice; details: copper-chelated form unless otherwise stated
Outline: as §3

[12] = test system: Sarcoma 180; assay: animal or person; type: in vivo, dd-strain mice; details: copper-chelated form unless otherwise stated; for Antitumor activity S180 (ED150): ip, once daily 9 days, effective dose 150, survival; for Antitumor therapeutic index S180: single dose LD50/ED150
Outline: as §3

[13] = Subacute toxicity, multiple dose LD50; type: in vivo, dd mice; details: ip, once daily 9 days, 30 days observation; copper-chelated form unless otherwise stated
Experimental: (§4) Graded doses of test compounds were administered intraperitoneally to groups of dd mice. The injection was given one time only or once daily for 9 consecutive days. Death or survival of the animals was recorded for 30 days after the last dose of test compound to calculate the single or multiple median lethal dose (LD50).

[14] = test system: Lymphocytic leukemia P388; assay: animal or person; type: in vivo, BDF1 mice; details: copper-chelated form unless otherwise stated
Outline: as §3

[15] = test system: lysogenic bacterium E. coli W1709 (λ); assay: Prophage induction of lysogenic bacterium (ILB activity); type: cell-based; details: t/c ratio of plaque counts greater than 3.0
Outline: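 Plaques counted on agar plates containing test compound and on control plates, following Lein et al. A test/control plaque ratio above 3.0 counted as significant. Value given as the minimum inducible concentration.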

[16] = Acute toxicity, single dose LD50; type: in vivo, dd mice; details: ip, 30 days observation, copper-chelated form unless otherwise stated
Experimental: as §4

[17] = test system: malignant tumors; assay: Initial studies using experimental animals: antitumor activity; type: in vivo; details: broad spectrum of malignant tumors; copper-free and copper-chelated forms
[18] = in vivo
[19] = in vivo; remark: listed apart in the source
[20] = Nephrotoxicity in a mouse model utilizing BUN measurement; type: in vivo; details: compared with bleomycin at equitoxic doses

Compound	minimum inhibitory concentration (MIC) [1]	minimum inhibitory concentration (MIC) [2]	minimum inhibitory concentration (MIC) [3]	minimum inhibitory concentration (MIC) [4]	minimum inhibitory concentration (MIC) [5]	minimum inhibitory concentration (MIC) [6]	minimum inhibitory concentration (MIC) [7]	minimum inhibitory concentration (MIC) [8]	Antibacterial potency [9]	Antitumor activity B16 (ID50) [10]	Antitumor therapeutic index B16 [10]	Antitumor activity S180 (ED150) [12]	Antitumor therapeutic index S180 [12]	ILB activity (minimum inducible concentration) [15]	LD50 single dose [16]	further results
Cc1c(N)nc(C(CC(N)=O)NCC(N)C(N)=O)nc1C(=O)NC(C(=O)NC(C)C(O)CC(=O)NC(C(=O)NC(OC1OC(C)C(N)C(O)C1O)C(O)c1nc(-c2nc(C(=O)NCCNCC(C)O)cs2)cs1)C(C)O)C(OC1OC(CO)C(O)C(O)C1OC1OC(CO)C(O)C(OC(N)=O)C1O)c1c[nH]cn1 (centres unmarked) [Tallysomycin S5b]	6.3	25	3.1	0.2	0.4	0.4	12.5	0.025	500 μ/mg	0.31 mg/kg/day	148	0.10 mg/kg/day	460	0.08 µg/mL	46 mg/kg/day	Antitumor activity Lewis lung (ED125) ([11]; ip, once daily 11 days, dose giving T/C survival of 125%): 0.38 mg/kg/day; Antitumor therapeutic index Lewis Lung ([11]; single dose LD50/ED125): 121; LD50 multiple dose (qd 1 → 9) [13]: 4.0 mg/kg/day; Antitumor activity P388 (ED125) ([14]; ip, once daily 9 days, dose giving T/C survival of 125%): 0.66 mg/kg/day; Antitumor therapeutic index P388 ([14]; single dose LD50/ED125): 70
Cc1c(N)nc([C@H](CC(N)=O)NC[C@H](N)C(N)=O)nc1C(=O)N[C@H](C(=O)N[C@H](C)[C@@H](O)CC(=O)N[C@H](C(=O)NC(O[C@@H]1O[C@@H](C)[C@@H](N)[C@@H](O)[C@H]1O)C(O)c1nc(-c2nc(C(=O)NCCCCN)cs2)cs1)[C@@H](C)O)[C@@H](O[C@@H]1O[C@@H](CO)[C@@H](O)[C@H](O)[C@@H]1O[C@H]1O[C@H](CO)[C@@H](O)[C@H](OC(N)=O)[C@@H]1O)c1cnc[nH]1 (some centres unmarked) [Tallysomycin S10b]	6.3	12.5	3.1	0.2	6.3	0.8	3.1	0.2	1,100 μ/mg	0.59 mg/kg/day	46	0.03 mg/kg/day	900	0.31 µg/mL	27 mg/kg/day	antitumor activity [17]: excellent antitumor activity against a broad spectrum of malignant tumors; dose response slope, lung hydroxyproline [18]: flatter than that observed with bleomycin; hydroxyproline content at high doses [18]: reduced compared to that of animals treated with bleomycin at equitoxic doses; lung hydroxyproline [18]: caused an increase in lung hydroxyproline suggesting pulmonary toxicity; undesirable side effects (e.g. nephrotoxicity) [19]: less undesirable side effects (e.g. nephrotoxicity) than the naturally-occurring tallysomycin A and B; toxicity to the kidney (BUN) [20]: no greater than that of bleomycin at equitoxic doses
